Laboratory results: ChEMBL document CHEMBL4184210, “Optimization of novel monobactams with activity against carbapenem-resistant Enterobacteriaceae - Identification of LYS228” (Bioorg Med Chem Lett, 2018)
≈ marks a conversion by molar mass, not a printed value.

Legend:
Escherichia coli [1] = test: Antimicrobial activity against Escherichia coli expressing beta-lactamase KPC-2 by CLSI broth microdilution method; format: functional
Escherichia coli [2] = test: Antimicrobial activity against Escherichia coli expressing beta-lactamase NDM-1 by CLSI broth microdilution method; format: functional
[3] = Chemical stability in pH 7.4 potassium phosphate buffer assessed as half life for compound hydrolysis at 37 degC by UPLC and mass spectrometry; format: physicochemical
Pseudomonas aeruginosa [4] = test: Antimicrobial activity against Pseudomonas aeruginosa ATCC 27853 by CLSI broth microdilution method; format: functional
Pseudomonas aeruginosa [5] = test: Antimicrobial activity against Pseudomonas aeruginosa expressing delta-mexB/delta-mexXY/delta-mexCD and delta-ampC mutant by CLSI broth microdilution method; format: functional
Pseudomonas aeruginosa [6] = test: Antimicrobial activity against Pseudomonas aeruginosa expressing nalB/delta-mexXY/delta-mexCDoprJ/delta-ampC by CLSI broth microdilution method; format: functional
Pseudomonas aeruginosa [7] = test: Antimicrobial activity against Pseudomonas aeruginosa expressing delta-mexB/mexXY/delta-ampDh2/ delta-ampD by CLSI broth microdilution method; format: functional
Escherichia coli [8] = test: microbe, parasite or virus in culture
Description: Antimicrobial activity against wild type Escherichia coli by CLSI broth microdilution method

Escherichia coli [9] = test: microbe, parasite or virus in culture; remark: listed apart in the source
Description: Antimicrobial activity against Escherichia coli expressing beta-lactamase CTXM-15 by CLSI broth microdilution method

Escherichia coli [10] = test: microbe, parasite or virus in culture; remark: listed apart in the source
Description: Antimicrobial activity against Escherichia coli expressing beta-lactamase SHV-12 by CLSI broth microdilution method

Escherichia coli [11] = test: microbe, parasite or virus in culture; remark: listed apart in the source
Description: Antimicrobial activity against Escherichia coli expressing beta-lactamase TEM-10 by CLSI broth microdilution method

Escherichia coli [12] = test: microbe, parasite or virus in culture; remark: listed apart in the source
Description: Antimicrobial activity against Escherichia coli expressing beta-lactamase AmpC by CLSI broth microdilution method

Escherichia coli [13] = test: microbe, parasite or virus in culture; remark: listed apart in the source
Description: Antimicrobial activity against Escherichia coli expressing beta-lactamase CMY-2 by CLSI broth microdilution method

Escherichia coli [14] = test: Antimicrobial activity against Escherichia coli expressing beta-lactamase VEB-1 by CLSI broth microdilution method; format: functional
Escherichia coli [15] = test: Antimicrobial activity against Escherichia coli expressing beta-lactamase TEM-1 by CLSI broth microdilution method; format: functional
Escherichia coli [16] = test: Antimicrobial activity against Escherichia coli expressing beta-lactamase NDM-5 by CLSI broth microdilution method; format: functional
Enterobacteriaceae = test: Antimicrobial activity against ESBL, KPC and MBL producing Enterobacteriaceae by CLSI broth microdilution method; format: functional
Escherichia coli [17] = test: microbe, parasite or virus in culture; remark: listed apart in the source
Description: Antimicrobial activity against Escherichia coli expressing beta-lactamase CTXM-3 by CLSI broth microdilution method

Escherichia coli [18] = test: microbe, parasite or virus in culture; remark: listed apart in the source
Description: Antimicrobial activity against Escherichia coli expressing beta-lactamase GES-1 by CLSI broth microdilution method

Escherichia coli [19] = test: microbe, parasite or virus in culture; remark: listed apart in the source
Description: Antimicrobial activity against Escherichia coli expressing beta-lactamase IMI-1 by CLSI broth microdilution method

Escherichia coli [20] = test: microbe, parasite or virus in culture; remark: listed apart in the source
Description: Antimicrobial activity against Escherichia coli expressing beta-lactamase KPC-3 by CLSI broth microdilution method

Escherichia coli [21] = test: microbe, parasite or virus in culture; remark: listed apart in the source
Description: Antimicrobial activity against Escherichia coli expressing beta-lactamase KPC-4 by CLSI broth microdilution method

Escherichia coli [22] = test: microbe, parasite or virus in culture; remark: listed apart in the source
Description: Antimicrobial activity against Escherichia coli expressing beta-lactamase KPC-8 by CLSI broth microdilution method

Escherichia coli [23] = test: microbe, parasite or virus in culture; remark: listed apart in the source
Description: Antimicrobial activity against Escherichia coli expressing beta-lactamase NMC-A by CLSI broth microdilution method

Escherichia coli [24] = test: microbe, parasite or virus in culture; remark: listed apart in the source
Description: Antimicrobial activity against Escherichia coli expressing beta-lactamase PER-1 by CLSI broth microdilution method

Escherichia coli [25] = test: microbe, parasite or virus in culture; remark: listed apart in the source
Description: Antimicrobial activity against Escherichia coli expressing beta-lactamase PER-2 by CLSI broth microdilution method

Escherichia coli [26] = test: microbe, parasite or virus in culture; remark: listed apart in the source
Description: Antimicrobial activity against Escherichia coli expressing beta-lactamase PER-4 by CLSI broth microdilution method

Escherichia coli [27] = test: microbe, parasite or virus in culture; remark: listed apart in the source
Description: Antimicrobial activity against Escherichia coli expressing beta-lactamase SME-1 by CLSI broth microdilution method

Escherichia coli [28] = test: microbe, parasite or virus in culture; remark: listed apart in the source
Description: Antimicrobial activity against Escherichia coli expressing beta-lactamase VEB-4 by CLSI broth microdilution method

Escherichia coli [29] = test: microbe, parasite or virus in culture; remark: listed apart in the source
Description: Antimicrobial activity against Escherichia coli expressing beta-lactamase VEB-7 by CLSI broth microdilution method

Escherichia coli [30] = test: microbe, parasite or virus in culture; remark: listed apart in the source
Description: Antimicrobial activity against Escherichia coli expressing beta-lactamase TEM-16 by CLSI broth microdilution method

Escherichia coli [31] = test: microbe, parasite or virus in culture; remark: listed apart in the source
Description: Antimicrobial activity against Escherichia coli expressing beta-lactamase TEM-24 by CLSI broth microdilution method

Escherichia coli [32] = test: microbe, parasite or virus in culture; remark: listed apart in the source
Description: Antimicrobial activity against Escherichia coli expressing beta-lactamase TEM-47 by CLSI broth microdilution method

Escherichia coli [33] = test: microbe, parasite or virus in culture; remark: listed apart in the source
Description: Antimicrobial activity against Escherichia coli expressing beta-lactamase TEM-121 by CLSI broth microdilution method

Escherichia coli [34] = test: microbe, parasite or virus in culture; remark: listed apart in the source
Description: Antimicrobial activity against Escherichia coli expressing beta-lactamase GIM-1 by CLSI broth microdilution method

Escherichia coli [35] = test: microbe, parasite or virus in culture; remark: listed apart in the source
Description: Antimicrobial activity against Escherichia coli expressing beta-lactamase IMP-1 by CLSI broth microdilution method

Escherichia coli [36] = test: microbe, parasite or virus in culture; remark: listed apart in the source
Description: Antimicrobial activity against Escherichia coli expressing beta-lactamase SPM-1 by CLSI broth microdilution method

Escherichia coli [37] = test: microbe, parasite or virus in culture; remark: listed apart in the source
Description: Antimicrobial activity against Escherichia coli expressing beta-lactamase VIM-1 by CLSI broth microdilution method

Escherichia coli [38] = test: microbe, parasite or virus in culture; remark: listed apart in the source
Description: Antimicrobial activity against Escherichia coli expressing beta-lactamase DHA by CLSI broth microdilution method

Escherichia coli [39] = test: microbe, parasite or virus in culture; remark: listed apart in the source
Description: Antimicrobial activity against Escherichia coli expressing beta-lactamase MIR-1 by CLSI broth microdilution method

Escherichia coli [40] = test: microbe, parasite or virus in culture; remark: listed apart in the source
Description: Antimicrobial activity against Escherichia coli expressing beta-lactamase P99 by CLSI broth microdilution method

Escherichia coli [41] = test: microbe, parasite or virus in culture; remark: listed apart in the source
Description: Antimicrobial activity against Escherichia coli expressing beta-lactamase Oxa-10 by CLSI broth microdilution method

Escherichia coli [42] = test: microbe, parasite or virus in culture; remark: listed apart in the source
Description: Antimicrobial activity against Escherichia coli expressing beta-lactamase Oxa-18 by CLSI broth microdilution method

Escherichia coli [43] = test: microbe, parasite or virus in culture; remark: listed apart in the source
Description: Antimicrobial activity against Escherichia coli expressing beta-lactamase Oxa-23 by CLSI broth microdilution method

Escherichia coli [44] = test: microbe, parasite or virus in culture; remark: listed apart in the source
Description: Antimicrobial activity against Escherichia coli expressing beta-lactamase Oxa-40 by CLSI broth microdilution method

Escherichia coli [45] = test: microbe, parasite or virus in culture; remark: listed apart in the source
Description: Antimicrobial activity against Escherichia coli expressing beta-lactamase Oxa-48 by CLSI broth microdilution method

Escherichia coli [46] = test: microbe, parasite or virus in culture; remark: listed apart in the source
Description: Antimicrobial activity against Escherichia coli expressing beta-lactamase Oxa-51 by CLSI broth microdilution method

Escherichia coli [47] = test: microbe, parasite or virus in culture; remark: listed apart in the source
Description: Antimicrobial activity against Escherichia coli expressing beta-lactamase Oxa-146 by CLSI broth microdilution method

Escherichia coli [48] = test: microbe, parasite or virus in culture; remark: listed apart in the source
Description: Antimicrobial activity against Escherichia coli expressing beta-lactamase Oxa-160 by CLSI broth microdilution method

Escherichia coli [49] = test: microbe, parasite or virus in culture; remark: listed apart in the source
Description: Antimicrobial activity against Escherichia coli expressing beta-lactamase Oxa-181 by CLSI broth microdilution method

Escherichia coli [50] = test: microbe, parasite or virus in culture; remark: listed apart in the source
Description: Antimicrobial activity against Escherichia coli expressing beta-lactamase Oxa-225 by CLSI broth microdilution method

Mus musculus = test: Toxicity in CD1 mouse assessed as induction of convulsion at 100 mg/kg, icv measured 1 hr after post dose; format: organism-based; conditions: in vivo, icv_or_intrathecal
[51] = target: GABA A receptor alpha-2/beta-2/gamma-2 (Homo sapiens) (UniProt P47870+P18507+P47869); test: Inhibition of recombinant human GABA A alpha2beta2gamma2 receptor expressed in CHO-K1 cells at 300 uM incubated at room temperature for 15 mins before the GABA addition fluorescence spectrometry; format: cell-based

Nc1nc(/C(=N/OC2(C(=O)O)CC2)C(=O)N[C@@H]2C(=O)N(S(=O)(=O)O)[C@H]2CN2CCOC2=O)cs1 (stereo in doubt)
MIC (Escherichia coli [1]): 0.5 µg/mL (≈ 0.964 µM)
MIC (Escherichia coli [2]): 0.25 µg/mL (≈ 0.482 µM)
half-life [3]: 18.8 days
MIC (Pseudomonas aeruginosa [4]): > 64 µg/mL
MIC (Pseudomonas aeruginosa [5]): 2 µg/mL (≈ 3.86 µM)
MIC (Pseudomonas aeruginosa [6]): > 64 µg/mL
MIC (Pseudomonas aeruginosa [7]): > 64 µg/mL
MIC (Escherichia coli [8]): 0.25 µg/mL (≈ 0.482 µM)
MIC (Escherichia coli [9]): 0.5 µg/mL (≈ 0.964 µM)
MIC (Escherichia coli [10]): 64 µg/mL (≈ 123 µM)
MIC (Escherichia coli [11]): 32 µg/mL (≈ 61.7 µM)
MIC (Escherichia coli [12]): 0.5 µg/mL (≈ 0.964 µM)
MIC (Escherichia coli [13]): 2 µg/mL (≈ 3.86 µM)

C[C@@H](O)[C@H]1C(=O)N2C(C(=O)O)=C(S[C@@H]3CN[C@H](C(=O)N(C)C)C3)[C@H](C)[C@H]12 [MEROPENEM]
MIC (Escherichia coli [1]): 2 µg/mL (≈ 5.22 µM)
MIC (Escherichia coli [14]): ≤ 0.06 µg/mL
MIC (Escherichia coli [15]): ≤ 0.06 µg/mL
MIC (Escherichia coli [2]): 16 to 64 µg/mL (≈ 41.7 to 167 µM)
MIC (Escherichia coli [16]): 64 µg/mL (≈ 167 µM)
half-life [3]: 3.25 days
MIC90 (Enterobacteriaceae): 32 µg/mL (≈ 83.4 µM)
MIC (Escherichia coli [8]): ≤ 0.015 µg/mL
MIC (Escherichia coli [17]): ≤ 0.06 µg/mL
MIC (Escherichia coli [9]): ≤ 0.015 µg/mL
MIC (Escherichia coli [18]): ≤ 0.06 µg/mL
MIC (Escherichia coli [19]): 1 µg/mL (≈ 2.61 µM)
MIC (Escherichia coli [20]): 2 µg/mL (≈ 5.22 µM)
MIC (Escherichia coli [21]): 1 µg/mL (≈ 2.61 µM)
MIC (Escherichia coli [22]): 2 µg/mL (≈ 5.22 µM)
MIC (Escherichia coli [23]): 2 µg/mL (≈ 5.22 µM)
MIC (Escherichia coli [24]): ≤ 0.06 µg/mL
MIC (Escherichia coli [25]): ≤ 0.06 µg/mL
MIC (Escherichia coli [26]): ≤ 0.06 µg/mL
MIC (Escherichia coli [10]): ≤ 0.015 µg/mL
MIC (Escherichia coli [27]): 4 µg/mL (≈ 10.4 µM)
MIC (Escherichia coli [28]): ≤ 0.06 µg/mL
MIC (Escherichia coli [29]): ≤ 0.06 µg/mL
MIC (Escherichia coli [30]): ≤ 0.06 µg/mL
MIC (Escherichia coli [31]): ≤ 0.06 µg/mL
MIC (Escherichia coli [32]): ≤ 0.06 µg/mL
MIC (Escherichia coli [33]): ≤ 0.06 µg/mL
MIC (Escherichia coli [34]): 1 µg/mL (≈ 2.61 µM)
MIC (Escherichia coli [35]): 8 µg/mL (≈ 20.9 µM)
MIC (Escherichia coli [36]): 8 µg/mL (≈ 20.9 µM)
MIC (Escherichia coli [37]): 4 µg/mL (≈ 10.4 µM)
MIC (Escherichia coli [12]): ≤ 0.015 µg/mL
MIC (Escherichia coli [38]): ≤ 0.06 µg/mL
MIC (Escherichia coli [13]): ≤ 0.06 µg/mL
MIC (Escherichia coli [39]): ≤ 0.06 µg/mL
MIC (Escherichia coli [40]): ≤ 0.06 µg/mL
MIC (Escherichia coli [41]): ≤ 0.06 µg/mL
MIC (Escherichia coli [42]): ≤ 0.06 µg/mL
MIC (Escherichia coli [43]): 0.125 µg/mL (≈ 0.326 µM)
MIC (Escherichia coli [44]): 1 µg/mL (≈ 2.61 µM)
MIC (Escherichia coli [45]): 1 µg/mL (≈ 2.61 µM)
MIC (Escherichia coli [46]): ≤ 0.015 µg/mL
MIC (Escherichia coli [47]): 0.125 µg/mL (≈ 0.326 µM)
MIC (Escherichia coli [48]): 0.25 µg/mL (≈ 0.652 µM)
MIC (Escherichia coli [49]): 0.5 µg/mL (≈ 1.3 µM)
MIC (Escherichia coli [50]): 0.125 µg/mL (≈ 0.326 µM)

C[C@@H](O)[C@H]1C(=O)N2C(C(=O)O)=C(S[C@@H]3CN[C@H](CNS(N)(=O)=O)C3)[C@H](C)[C@H]12 [DORIPENEM]
Activity (Mus musculus): Non-Toxic
inhibition [51]: 0%
